Measured values from patent publication US9261498B2, “Biomarker for sensitivity to mTOR inhibitor therapy in kidney cancer” (The Regents of the University of California, priority 2005, dated 2016).
Entries after “also recorded” stand apart in the source; their conditions may differ.

Tests used:
[1] = system: VHL knockdown xenograft tumors; assay: Microvessel density by CD-31 immunolabeling in xenograft tumors; format: in vivo, SCID mice
Description: FIGS. 2A-2C. Effects of VHL knockdown on angiogenesis. (a) Microvessel density was quantified by CD-31 immunolabeling (arrows) in the xenograft tumors, and difference between CCI-779 treated (+) and vehicle (−) treated mice quantified (n=6 in each group). P<0.0033 for microvessel density counts in VHL shRNA compared to vector only (see blue bars). (b) Similar number of cells were plated and maintained in 10% serum rich media, in the presence (+) or absence (−) of 10 nM CCI-779. Thirty-six hours later, conditioned media was analyzed by anti-VEGF ELISA and cell extracts prepared for protein quantification. VEGF values were normalized to total cellular protein. Error bars equal one standard deviation (n=3). (c) Immunohistochemistry for VEGF protein was performed on paraffin embedded tumor xenografts from vehicle and CCI-779 treated mice.
Xenograft tumor samples were fixed in 10% buffered formalin and embedded in paraffin. […] Microvessel density was quantified by as described previously (Weidner, N. et al. J Natl Cancer Inst 84, 1875-87 (1992)). Briefly, microvessel density was determined by light microscopy in areas of the xenograft tumor containing highest numbers of capillaries and small venules (microvessels) per area (i.e. neovascular “hotspots”) by scanning the tumor sections at low power (40× and 100×). […]

HIF-1α = assay: Immunoblot of HIF-1α protein in VHL knockdown RCC cells; format: cell-based, human; details: 1 and 10 nM CCI-779, 24 hours
Description: (a) SN12C-CSCG and SN12C-VHLshRNA cell were treated with vehicle, 1 nM or 10 nM of CCI-779 and lysed 24 hours later. Lysates were subjected to immunoblotting for HIF-1α, HIF-2α, GLUT-1, CA-IX, p-eIF4G, p-S6 Ribosomal protein. Equal protein loading was verified using anti-β-actin antibody. (b) HIF-1α expression was probed by immunoblotting in SN12C-MSCV-5′TOP-HIF-1α cDNA (left panel) and SN12C-MSCV-HIF-1α cDNA (tight panel) post 24 hours of vehicle, 1 nM or 10 nM of CCI-779.
Cells and xenograft tumors were lysed in ECB lysis buffer (see, e.g. Kondo et al., Cancer Cell 1, 237-46 (2002)) or high-detergent buffer (2% SDS), (see, e.g. Chen et al., Nat Med 10, 33-9 (2004)), respectively, supplemented with complete protease and phosphatase inhibitor cocktails (Calbiochem). […] Bound antibody was detected using enhanced chemiluminescence (ECL, Amersham). For VEGF ELISA quantification, cells were plated in 6 well plates (1×10^5 per well). […] Thirty-six hours later, VEGF ELISA (R&D Systems) was performed according to the manufacturer's instructions, using a Fisher Plate reader. […]
Cells and xenograft tumors were lysed in ECB lysis buffer or high-detergent buffer (2% SDS), respectively, supplemented with complete protease and phosphatase inhibitor cocktails (Calbiochem). […] Bound antibody was detected using enhanced chemiluminescence (ECL, Amersham). […]

Q: Which “angiogenesis as measured by microvessel density” value ([1]; CCI-779 treated vs vehicle) does the source give for `CO[C@H]1C[C@@H]2CC[C@@H](C)[C@@](O)(O2)C(=O)C(=O)N2CCCC[C@H]2C(=O)O[C@H]([C@H](C)C[C@@H]2CC[C@@H](OC(=O)C(C)(CO)CO)[C@H](OC)C2)CC(=O)[C@H](C)/C=C(\C)[C@@H](O)[C@@H](OC)C(=O)[C@H](C)C[C@H](C)/C=C/C=C/C=C/1C` [CCI-779] here?
A: objective decrease in angiogenesis

Q: What about the “decrease in microvessel density” value ([1]; CD-31 staining, CCI-779 0.1 mg/kg vs vehicle) of the same compound?
A: greater than 50%

Q: And the HIF-1α protein levels (HIF-1α)?
A: dramatically reduced; also recorded: reduction; also recorded: decrease
